Reference: ChEMBL document CHEMBL1201862, “PubChem BioAssay data set” (2004)
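Cultured in 96-well plates, cells were exposed to test compound for 48 hours across five concentrations. GI50: concentration for 50% inhibition of growth.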 Active and inactive are the calls of the source. Rule as the data show it: active = GI50 up to about 1.1 µM and inactive = higher.

Key:
Assay in all cases: NCI-60 cell line screen, 48 h
SK-MEL-28 = test system: SK-MEL-28
OVCAR-8 = test system: OVCAR-8
OVCAR-3 = test system: OVCAR-3
SF-539 = test system: SF-539
ACHN = test system: ACHN
BT-549 = test system: BT-549
NCI-H226 = test system: NCI-H226
OVCAR-4 = test system: OVCAR-4
SK-OV-3 = test system: SK-OV-3
SK-MEL-5 = test system: SK-MEL-5
Malme-3M = test system: Malme-3M
HOP-92 = test system: HOP-92
A498 = test system: A498
NCI-H522 = test system: NCI-H522
HT-29 = test system: HT-29
U-251 = test system: U-251
CAKI-1 = test system: CAKI-1
SNB-75 = test system: SNB-75

| SMILES | GI50 (SK-MEL-28) | GI50 (OVCAR-8) | GI50 (OVCAR-3) | GI50 (SF-539) | GI50 (ACHN) | GI50 (BT-549) | GI50 (NCI-H226) | GI50 (OVCAR-4) | GI50 (SK-OV-3) | GI50 (SK-MEL-5) | GI50 (Malme-3M) | GI50 (HOP-92) | GI50 (A498) | GI50 (NCI-H522) | GI50 (HT-29) | GI50 (U-251) | GI50 (CAKI-1) | GI50 (SNB-75) |
| --- | --- | --- | --- | --- | --- | --- | --- | --- | --- | --- | --- | --- | --- | --- | --- | --- | --- | --- |
| OC1C2[C@@H](O)CCCN2C[C@@H](O)[C@H]1O (stereo partly specified) | > 100 µM (inactive) | > 100 µM (inactive) | > 100 µM (inactive) | > 100 µM (inactive) | > 100 µM (inactive) | > 100 µM (inactive) | > 100 µM (inactive) | > 100 µM (inactive) | > 100 µM (inactive) | > 100 µM (inactive) | > 100 µM (inactive) | > 100 µM (inactive) | > 100 µM (inactive) | 71.1 µM (inactive) | > 100 µM (inactive) | > 100 µM (inactive) | > 100 µM (inactive) | > 100 µM (inactive) |
| N=C(N)NC(=N)Nc1ccc(S(N)(=O)=O)cc1 | > 100 µM (inactive) | > 100 µM (inactive) | > 100 µM (inactive) | > 100 µM (inactive) | > 100 µM (inactive) | > 100 µM (inactive) | > 100 µM (inactive) | > 100 µM (inactive) | > 100 µM (inactive) | > 100 µM (inactive) | > 100 µM (inactive) | > 100 µM (inactive) | > 100 µM (inactive) | > 100 µM (inactive) | > 100 µM (inactive) | > 100 µM (inactive) | > 100 µM (inactive) | > 100 µM (inactive) |
| CC(=O)c1c(O)c(C)c(O)c(Cc2c(O)c3c(c(C(=O)/C=C/c4ccccc4)c2O)OC(C)(C)C=C3)c1O [ROTTLERIN] | 2.86 µM (inactive) | 3.08 µM (inactive) | 2.7 µM (inactive) | 2.99 µM (inactive) | 3.51 µM (inactive) | 2.51 µM (inactive) | 3.45 µM (inactive) | 2.79 µM (inactive) | 4.04 µM (inactive) | 1.87 µM (inactive) | 2.84 µM (inactive) | 1.62 µM (inactive) | 1.95 µM (inactive) | 1.95 µM (inactive) | 3.24 µM (inactive) | 2.31 µM (inactive) | 2.91 µM (inactive) | 1.27 µM (inactive) |
| CSC(=S)NN=C1CCCC1.CSC(=S)NN=C1CCCC1.[Zn+2] | 72.4 µM (inactive) | 14.4 µM (inactive) | 24.6 µM (inactive) | 21.3 µM (inactive) | 1.83 µM (inactive) | 24 µM (inactive) | 43.9 µM (inactive) | 52.5 µM (inactive) | > 100 µM (inactive) | 57.1 µM (inactive) | 12.5 µM (inactive) | 0.0415 µM (active) | > 100 µM (inactive) | 15.7 µM (inactive) | 19.5 µM (inactive) | 8.93 µM (inactive) | 46.7 µM (inactive) | > 100 µM (inactive) |
| CC1(C)OC2C(O)C(CO)OC2(C(F)F)O1 (stereo unspecified) | > 100 µM (inactive) | > 100 µM (inactive) | > 100 µM (inactive) | > 100 µM (inactive) | – | > 100 µM (inactive) | > 100 µM (inactive) | > 100 µM (inactive) | > 100 µM (inactive) | > 85.3 µM (inactive) | > 100 µM (inactive) | > 100 µM (inactive) | > 100 µM (inactive) | > 100 µM (inactive) | > 100 µM (inactive) | > 100 µM (inactive) | > 100 µM (inactive) | > 100 µM (inactive) |
| Ic1cccc(/C=C/CN2CCN(CCOC(c3ccccc3)c3ccccc3)CC2)c1 | 20.8 µM (inactive) | 16 µM (inactive) | 16.7 µM (inactive) | 17.3 µM (inactive) | 44.6 µM (inactive) | 16.8 µM (inactive) | 17.1 µM (inactive) | 17.5 µM (inactive) | 21.6 µM (inactive) | 14.3 µM (inactive) | 18.9 µM (inactive) | 14.4 µM (inactive) | 16.7 µM (inactive) | 16.1 µM (inactive) | 6.47 µM (inactive) | 13.6 µM (inactive) | 17.5 µM (inactive) | 11.5 µM (inactive) |
| COc1cc(C2c3cc4c(cc3OC(NCCc3ccccc3)C2C)OCO4)cc(OC)c1OC (stereo unspecified) | 18.3 µM (inactive) | 0.441 µM (active) | 0.378 µM (active) | 0.286 µM (active) | 1.36 µM (inactive) | 0.617 µM (active) | 0.871 µM (active) | 0.778 µM (active) | 0.397 µM (active) | 0.224 µM (active) | 0.231 µM (active) | 4.67 µM (inactive) | 0.574 µM (active) | 0.248 µM (active) | 0.321 µM (active) | 0.348 µM (active) | 0.291 µM (active) | 0.198 µM (active) |
| Nc1nc(Cl)c(C=O)c(NCC2(CO)CCC2)n1 | 34.8 µM (inactive) | 15 µM (inactive) | 17.5 µM (inactive) | 32.7 µM (inactive) | 37.8 µM (inactive) | 28.6 µM (inactive) | 15.4 µM (inactive) | 14.3 µM (inactive) | 27.2 µM (inactive) | 14.5 µM (inactive) | 43.1 µM (inactive) | 15.3 µM (inactive) | 25.1 µM (inactive) | 3.56 µM (inactive) | 31.4 µM (inactive) | 15.2 µM (inactive) | 13.6 µM (inactive) | 24 µM (inactive) |
| C=C(C)C12CC(COC(=O)c3ccccc3)C34OC5(OC1C3C1OC1(CO)C(O)C1(O)C(OC(=O)c3ccccc3)C(C)C(C(C)CCCCCCC5O)C14)O2 (stereo unspecified) | > 49.5 µM (inactive) | 60.4 µM (inactive) | 63 µM (inactive) | > 70.3 µM (inactive) | 24.3 µM (inactive) | > 100 µM (inactive) | 40.7 µM (inactive) | > 100 µM (inactive) | > 100 µM (inactive) | 11.6 µM (inactive) | 25.2 µM (inactive) | > 100 µM (inactive) | 60.4 µM (inactive) | 46.5 µM (inactive) | 19.5 µM (inactive) | 32.6 µM (inactive) | 56.5 µM (inactive) | > 82.8 µM (inactive) |
| COP(=O)(OC)/C(=C/c1c[nH]c2ccccc12)C(=O)O | > 100 µM (inactive) | > 100 µM (inactive) | > 100 µM (inactive) | > 100 µM (inactive) | > 100 µM (inactive) | > 100 µM (inactive) | > 100 µM (inactive) | > 100 µM (inactive) | > 100 µM (inactive) | > 100 µM (inactive) | > 100 µM (inactive) | > 100 µM (inactive) | > 100 µM (inactive) | > 100 µM (inactive) | > 100 µM (inactive) | > 100 µM (inactive) | > 100 µM (inactive) | > 100 µM (inactive) |
| CC1=C2O[C@]3(O)C=C2C(=C(O)C1=O)[C@@H]1O[C@H](CC[C@H](C)/C=C(\C)C[C@@H](C)C[C@@H]3C)[C@H](C)[C@H](O)[C@H]1C [KENDOMYCIN] | 0.229 µM (active) | – | 0.15 µM (active) | 0.173 µM (active) | 0.132 µM (active) | 0.331 µM (active) | 1.12 µM (active) | 0.194 µM (active) | 1.12 µM (active) | 0.498 µM (active) | 0.194 µM (active) | 0.13 µM (active) | 1.58 µM (inactive) | 0.218 µM (active) | 0.181 µM (active) | 0.326 µM (active) | 0.541 µM (active) | 0.394 µM (active) |
| O=C(/C=C/c1c(O)nc2ccccc2c1O)CC(=O)C(=O)Nc1cccc(O)c1 | > 100 µM (inactive) | > 100 µM (inactive) | > 100 µM (inactive) | > 100 µM (inactive) | > 100 µM (inactive) | > 100 µM (inactive) | > 100 µM (inactive) | > 100 µM (inactive) | > 100 µM (inactive) | > 100 µM (inactive) | > 100 µM (inactive) | > 100 µM (inactive) | > 100 µM (inactive) | > 100 µM (inactive) | > 100 µM (inactive) | > 100 µM (inactive) | > 100 µM (inactive) | > 100 µM (inactive) |
| O=C(Nc1sccc1S(=O)(=O)c1ccc(Cl)cc1)c1ccc(Cl)cc1 | > 100 µM (inactive) | 63 µM (inactive) | > 100 µM (inactive) | 39.9 µM (inactive) | 99.1 µM (inactive) | > 100 µM (inactive) | > 100 µM (inactive) | 25.6 µM (inactive) | 52.6 µM (inactive) | 74.3 µM (inactive) | 50.6 µM (inactive) | 73.1 µM (inactive) | > 100 µM (inactive) | > 100 µM (inactive) | > 100 µM (inactive) | 31 µM (inactive) | 80.4 µM (inactive) | 31.8 µM (inactive) |
| CC(C)=CCC[C@]1(C)C=Cc2c(O)c3c(c(CC=C(C)C)c2O1)O[C@]12C(=C[C@@H]4CC1C(C)(C)O[C@@]2(C/C=C(/C)C(=O)O)C4=O)C3=O | 1.28 µM (inactive) | 0.643 µM (active) | 1.38 µM (inactive) | 0.206 µM (active) | 0.419 µM (active) | 1.91 µM (inactive) | 0.774 µM (active) | 2.38 µM (inactive) | 3.01 µM (inactive) | – | 1.19 µM (inactive) | 1.78 µM (inactive) | 1.73 µM (inactive) | 0.406 µM (active) | 0.461 µM (active) | 0.676 µM (active) | 0.973 µM (active) | 1.63 µM (inactive) |
| Cc1ccc(C2(c3ccc(F)cc3)OC(=O)c3ccccc32)c(O)c1 (stereo unspecified) | – | 18.2 µM (inactive) | 3.56 µM (inactive) | 18.9 µM (inactive) | 14.8 µM (inactive) | 19.7 µM (inactive) | 15 µM (inactive) | 17 µM (inactive) | 11.9 µM (inactive) | 16.3 µM (inactive) | > 10 µM (inactive) | 16.6 µM (inactive) | 19.6 µM (inactive) | 14.5 µM (inactive) | 17.7 µM (inactive) | 18.5 µM (inactive) | 11.6 µM (inactive) | 12.3 µM (inactive) |
